These results are taken from US8618138B2, “Indole amide derivatives and related compounds for use in the treatment of neurodegenerative diseases” (Katholieke Universiteit Leuven, K.U. Leuven R&D, priority 2009, dated 2013).

pEC50: −log10 of the molar value.

The subject of the assay is M17-TAU P301L cells. Kind of assay: TAU cytotoxicity assay: LDH leakage of retinoic acid incubated M17-TAU P301L cells. The format is cell-based, human. As to conditions: Homo sapiens, 168 h, reduction of LDH activity of retinoic acid incubated M17-TAU P301L cells, 7 days. The source says: A TAU expression plasmid was constructed by sub-cloning the cDNA of human TAU-P301 L (encoding for TAU with proline 301 substituted by a leucine residue) into mammalian expression vector pcDNA3.1 resulting in plasmid pcDNA3.1-TAU P301L. Plasmids pcDNA3.1 and pcDNA3.1-TAU P301L were transfected to human neuroblastoma cells ([…]; ATCC No. CRL-2267) and independent clonal lines with the plasmids stably integrated into the genome were selected. […] Expression of the TAU P301L genes in the cell lines was confirmed by Western analysis.
In degenerated or dead cells lactate dehydrogenase (LDH) is leaked out of the cells into the extracellular environment due to a loss of plasma-membrane integrity. This principle was used to determine cytotoxicity by quantifying the level of leaked LDH into the growth medium.
The detailed method for determining TAU cytotoxicity was as follows: From appropriate precultures of M17-3.1 and M17-TAU(P301L) cells were seeded at 2500 cells/cm2 in Optimem Reduced Serum without phenol red (Gibco, Cat. 31985-047) supplemented with 1% fetal calf serum, 1 mM sodium pyruvate, 1× non-essential amino acids, 500 μg/ml G418 0.5× antibiotic/antimycotic. After 3 h of incubation at 37° C./5% CO2 1 volume of Optimem Reduced Serum (same as described above; except without fetal calf serum) supplemented with 2.5 μM retinoic acid (RA) was added. The cells were further incubated for 7 days. Subsequently, LDH activity was determined using Promega Cytotox 96 Non-Radioactive cytotoxicity assay, (Cat. G1780) according the supplier's instructions.
The M17-TAU P301L cell line made it possible to assess the ability of novel compounds to counteract TAU cytotoxicity. […] These measurements were used to calculate EC50 values of table 2.
Exemplary compounds of the present invention are shown in table 2, with their chemical name and their EC50 value (expressed in nM) as determined from example 196 in the Tau-induced toxicity experiment.
Turning to `Cc1cc(C(=O)NCCc2c[nH]c3ccccc23)c(C)n1C1CC1` [Example D72, N-(2-(1H-indol-3-yl)ethyl)-1-cyclopropyl-2,5-dimethyl-1H-pyrrole-3-carboxamide], the pEC50 (as a rule, the negative decadic logarithm of the EC50, by convention in mol/L) was 6.34.

`O=C(NCCc1c[nH]c2ccc(Cl)cc12)C1CCN(c2c(F)cccc2F)C1=O` (stereo not shown) [Example D151, N-(2-(5-chloro-1H-indol-3-yl)ethyl)-1-(2,6-difluorophenyl)-2-oxopyrrolidine-3-carboxamide] had a pEC50 of 6.25.

As for `O=C(NCCc1c[nH]c2ccc(Cl)cc12)C1=N[C@H](C2CCCCC2)CO1` [Example D58, (R)-N-(2-(5-chloro-1H-indol-3-yl)ethyl)-4-cyclohexyl-4,5-dihydrooxazole-2-carboxamide], the pEC50 was 6.69.

The molecule `Cn1nc(C(=O)NCCc2c[nH]c3ccc(Cl)cc23)cc1-c1ccccc1` [Example D26, N-(2-(5-chloro-1H-indol-3-yl)ethyl)-1-methyl-5-phenyl-1H-pyrazole-3-carboxamide] showed a pEC50 of 7.42.

For the molecule `Cc1ccc(-c2nc(C)c(C(=O)NCCc3c[nH]c4ccc(Cl)cc34)s2)cc1` [Example D45, N-(2-(5-chloro-1H-indol-3-yl)ethyl)-4-methyl-2-p-tolylthiazole-5-carboxamide], the pEC50 was 6.95.

Regarding `O=C(NCCc1c[nH]c2ncc(Cl)cc12)c1cc(C(=O)c2cc(F)ccc2F)on1` [Example D127, N-(2-(5-chloro-1H-pyrrolo[2,3-b]pyridin-3-yl)ethyl)-5-(2,5-difluorobenzoyl)isoxazole-3-carboxamide], the pEC50 is 6.36.

In turn, `COc1ccc2[nH]cc(CCNC(=O)c3c(-c4ccccc4)noc3C)c2c1` [Example D109, N-(2-(5-methoxy-1H-indol-3-yl)ethyl)-5-methyl-3-phenylisoxazole-4-carboxamide] showed a pEC50 of 5.51.

The molecule `O=C(NCCc1n[nH]c2ccccc12)c1cc(Cc2cc(F)ccc2F)on1` [Example D166, N-(2-(1H-indazol-3-yl)ethyl)-5-(2,5-difluorobenzyl)isoxazole-3-carboxamide] had a pEC50 of 6.20.

`O=C(NCCc1c[nH]c2ccc(Cl)cc12)C1CCN(c2ccc(Cl)cc2)C1=O` (stereo not shown) [Example D153, N-(2-(5-chloro-1H-indol-3-yl)ethyl)-1-(4-chlorophenyl)-2-oxopyrrolidine-3-carboxamide] showed a pEC50 of 6.44.

Regarding `Cc1ccc(Cc2cc(C(=O)NCCc3c[nH]c4ccc(Cl)cc34)no2)cc1` [Example D12, N-(2-(5-chloro-1H-indol-3-yl)ethyl)-5-(4-methylbenzyl)isoxazole-3-carboxamide], the pEC50 was 7.77.

As to `O=C(NCCc1c[nH]c2ccccc12)c1cc(Cc2cccc(F)c2)on1` [Example D31, N-(2-(1H-indol-3-yl)ethyl)-5-(3-fluorobenzyl)isoxazole-3-carboxamide], the pEC50 was 7.36.

The molecule `COc1ccccc1N1CCC(C(=O)NCCc2c[nH]c3ccc(Cl)cc23)C1=O` (stereo not shown) [Example D163, N-(2-(5-chloro-1H-indol-3-yl)ethyl)-1-(2-methoxyphenyl)-2-oxopyrrolidine-3-carboxamide] gave a negative logarithm of the EC50 (pEC50) of 5.73.

The molecule `COc1cccc(Cc2nc(C(=O)NCCc3c[nH]c4ccc(Cl)cc34)no2)c1` [Example D177, N-(2-(5-chloro-1H-indol-3-yl)ethyl)-5-(3-methoxybenzyl)-1,2,4-oxadiazole-3-carboxamide] had a pEC50 of 7.54.

In turn, `CC(C)(C)c1ccc(Cc2nc(C(=O)NCCc3c[nH]c4ccc(Cl)cc34)no2)cc1` [Example D176, 5-(4-tert-butylbenzyl)-N-(2-(5-chloro-1H-indol-3-yl)ethyl)-1,2,4-oxadiazole-3-carboxamide] gave a negative-log EC50 (pEC50) of 7.00.

`CCNCc1cc(C(=O)NCCc2c[nH]c3ccc(Cl)cc23)no1` [Example D66, N-(2-(5-chloro-1H-indol-3-yl)ethyl)-5-((ethylamino)methyl)isoxazole-3-carboxamide] had a pEC50 of 6.49.

Consider `CCc1ccc(N2CCC(C(=O)NCCc3c[nH]c4ccc(C)cc34)C2=O)cc1` (stereo not shown) [Example D48, 1-(4-ethylphenyl)-N-(2-(5-methyl-1H-indol-3-yl)ethyl)-2-oxopyrrolidine-3-carboxamide], for which the pEC50 is 6.86.

Turning to `O=C(NCCc1c[nH]c2ccc(Cl)cc12)C1CCN(c2cccc(-n3cccc3)c2)C1=O` (stereo not shown) [Example D155, 1-(3-(1H-pyrrol-1-yl)phenyl)-N-(2-(5-chloro-1H-indol-3-yl)ethyl)-2-oxopyrrolidine-3-carboxamide], the pEC50 is 5.86.

As to `O=C(NCCc1c[nH]c2ccc(Cl)cc12)c1noc(Cc2cccc(Cl)c2)n1` [Example D190, N-(2-(5-chloro-1H-indol-3-yl)ethyl)-5-(3-chlorobenzyl)-1,2,4-oxadiazole-3-carboxamide], the pEC50 was 7.60.

In the case of `O=C(NCCc1c[nH]c2ccc(Cl)cc12)C1CCN(c2ccc3c(c2)CCC3)C1=O` (stereo not shown) [Example D145, N-(2-(5-chloro-1H-indol-3-yl)ethyl)-1-(2,3-dihydro-1H-inden-5-yl)-2-oxopyrrolidine-3-carboxamide], the pEC50 is 6.86.

The molecule `O=C(NCCc1c[nH]c2ccc(F)cc12)c1cc(Cc2cccc(F)c2)on1` [Example D28, N-(2-(5-fluoro-1H-indol-3-yl)ethyl)-5-(3-fluorobenzyl)isoxazole-3-carboxamide] had a pEC50 of 7.39.

For the molecule `CCOCc1cc(C(=O)NCCc2c[nH]c3ccc(Cl)cc23)no1` [Example D123, N-(2-(5-chloro-1H-indol-3-yl)ethyl)-5-(ethoxymethyl)isoxazole-3-carboxamide], the pEC50 was 7.72.

Take `O=C(NCCc1c[nH]c2ccc(Cl)cc12)c1cc(Cc2cccc(F)c2)on1` [Example D23, N-(2-(5-chloro-1H-indol-3-yl)ethyl)-5-(3-fluorobenzyl)isoxazole-3-carboxamide]: the pEC50 was 7.52.

In turn, `O=C(NCCc1c[nH]c2ccc(Cl)cc12)C1CCN(c2ccc(C(F)(F)F)c(F)c2)C1=O` (stereo not shown) [Example D150, N-(2-(5-chloro-1H-indol-3-yl)ethyl)-1-(3-fluoro-4-(trifluoromethyl)phenyl)-2-oxopyrrolidine-3-carboxamide] had a pEC50 of 4.63.

Molecule `O=C(c1cc(Cc2cc(F)ccc2F)on1)N1CCC(c2c[nH]c3ccccc23)CC1` [Example D138, (4-(1H-indol-3-yl)piperidin-1-yl)(5-(2,5-difluorobenzyl)isoxazol-3-yl)methanone] gave a pEC50 of 6.38.

`O=C(NCCc1c[nH]c2ccc(Cl)cc12)C1CCN(c2ccc(F)cc2)C1=O` (stereo not shown) [Example D78, N-(2-(5-chloro-1H-indol-3-yl)ethyl)-1-(4-fluorophenyl)-2-oxopyrrolidine-3-carboxamide] had a pEC50 of 6.16.

As for `Cn1nc(C(=O)NCCc2c[nH]c3ccc(Cl)cc23)cc1-c1ccco1` [Example D19, N-(2-(5-chloro-1H-indol-3-yl)ethyl)-5-(furan-2-yl)-1-methyl-1H-pyrazole-3-carboxamide], the pEC50 was 7.64.

As to `O=C(NCCc1c[nH]c2cc(F)ccc12)c1cc(Cc2cccc(F)c2)on1` [Example D47, N-(2-(6-fluoro-1H-indol-3-yl)ethyl)-5-(3-fluorobenzyl)isoxazole-3-carboxamide], the pEC50 is 6.88.

With `CCc1ccc(N2CCC(C(=O)NCCc3c[nH]c4ccc(Cl)cc34)C2=O)cc1` (stereo not shown) [Example D40, N-(2-(5-chloro-1H-indol-3-yl)ethyl)-1-(4-ethylphenyl)-2-oxopyrrolidine-3-carboxamide], the pEC50 is 7.04.
